In patent US6166050A, “3,4-diamino-3-cyclobutene-1,2-dione derivatives which inhibit leukocyte adhesion mediated by VLA-4” (American Home Products Corporation, priority 1999, dated 2000) one finds IC50 data, which are given here for 14 compounds.

The term IC50 denotes the concentration that inhibits the measured activity by half.

In this test the target is T1, α4 β1 integrin (VLA-4) (Homo sapiens, UniProt P05556+P13612).
T1 construct: Jurkat cells (ATCC #TIB-153) which express high levels of α4 β1 integrin (VLA-4); host or cells: Jurkat cells
Nature of the test: Monovalent FACS Assay for α4 β1 Integrin/VCAM-1 Binding (inhibition of soluble VCAM-1 binding to Jurkat cells). The method, then:
The foregoing compounds were tested for VLA-4 binding activity using the following monvalent FACS assay. The IC50 for a compound reflects 50% receptor occupancy.
Monovalent FACS Assay for α4 β1 Integrin/VCAM-1 Binding
The VLA-4 binding activity of exemplary compounds was measured by measuring the inhibition of the interaction of soluble VCAM-1 with Jurkat cells (ATCC #TIB-153) which express high levels of α4 β1 integrin (VLA-4) using a modification of the fluorescence activated cell sorter (FACS) assay described by Yednock, et al., J. Biol. Chem., 1995, 270:28740. VCAM-1 interacts with the cell surface in an α4 β1 integrin-dependent fashion.
Jurkat cells were grown in RPMI 1640 supplemented with 10% fetal bovine serum, penicillin, streptomycin and glutamine as described by Yednock, supra.
Recombinant soluble VCAM-1 (rsVCAM-1) was produced in a baculovirus expression system as a chimeric fusion protein containing the seven immunoglobulin domains of VCAM-1 on the N-terminus and the human IgG1 heavy chain constant region on the C-terminus as described by Yednock, supra. Supernatant containing approximately 10 ug/ml rsVCAM-1 was collected after 72 hours and used in the assay without purification.
Jurkat cells (approximately 10^7 cells/ml) were treated with 1.5 mM MnCl2 and 5 μg/ml 15/7 for 30 minutes on ice to activate β1 integrin. Mn^+2 activates the receptor to enhance ligand binding, and 15/7 is a monoclonal antibody that recognizes an activated/ligand occupied conformation of α4 β1 integrin and locks the molecule into this conformation thereby stabilizing the VCAM-1/α4 β1 integrin interaction. Yednock, et al., supra. Antibodies similar to 15/7 have been prepared and may be used in this assay. For example, see, Luque, et al., 1996, J. Bio. Chem., 271: 11067.
Aliquots of 25 μl cells were incubated for 30 minutes at room temperature with compounds using a standard 5-point serial dilution. 15 μl of rsVCAM-Fc-containing baculovirus supernatant was added to the cells and incubated for 30 minutes on ice as described in Yednock, et al., supra.
Cells were washed twice and resuspended in 100 μl of a 1:100 dilution of FITC-conjugated goat anti-human IgG to detect the human Ig-VCAM-1 construct diluted in assay media containing 2.5% mouse serum to block potential cross-reactivity with cell surface bound 15/7. Cells were incubated on ice for 30 minutes in the dark. Cells were washed twice and analyzed with a standard FACS analysis as described in Yednock, et al., supra. on a FACScan flow cytometer (Becton Dickinson, Mountain View, Calif.).

[1] abbreviates: Jurkat cells, rsVCAM-1, IC50 reflects 50% receptor occupancy, unit μM, read-out: IC50 (FACS).
The mark [2] stands for this setting: Jurkat cells, rsVCAM-1, IC50 reflects 50% receptor occupancy, unit nM, read-out: IC50 (FACS).

SMILES strings stand for the structures. Where two headings read alike, the source gives them in different places.

T1 sequence (P13612 34-1032): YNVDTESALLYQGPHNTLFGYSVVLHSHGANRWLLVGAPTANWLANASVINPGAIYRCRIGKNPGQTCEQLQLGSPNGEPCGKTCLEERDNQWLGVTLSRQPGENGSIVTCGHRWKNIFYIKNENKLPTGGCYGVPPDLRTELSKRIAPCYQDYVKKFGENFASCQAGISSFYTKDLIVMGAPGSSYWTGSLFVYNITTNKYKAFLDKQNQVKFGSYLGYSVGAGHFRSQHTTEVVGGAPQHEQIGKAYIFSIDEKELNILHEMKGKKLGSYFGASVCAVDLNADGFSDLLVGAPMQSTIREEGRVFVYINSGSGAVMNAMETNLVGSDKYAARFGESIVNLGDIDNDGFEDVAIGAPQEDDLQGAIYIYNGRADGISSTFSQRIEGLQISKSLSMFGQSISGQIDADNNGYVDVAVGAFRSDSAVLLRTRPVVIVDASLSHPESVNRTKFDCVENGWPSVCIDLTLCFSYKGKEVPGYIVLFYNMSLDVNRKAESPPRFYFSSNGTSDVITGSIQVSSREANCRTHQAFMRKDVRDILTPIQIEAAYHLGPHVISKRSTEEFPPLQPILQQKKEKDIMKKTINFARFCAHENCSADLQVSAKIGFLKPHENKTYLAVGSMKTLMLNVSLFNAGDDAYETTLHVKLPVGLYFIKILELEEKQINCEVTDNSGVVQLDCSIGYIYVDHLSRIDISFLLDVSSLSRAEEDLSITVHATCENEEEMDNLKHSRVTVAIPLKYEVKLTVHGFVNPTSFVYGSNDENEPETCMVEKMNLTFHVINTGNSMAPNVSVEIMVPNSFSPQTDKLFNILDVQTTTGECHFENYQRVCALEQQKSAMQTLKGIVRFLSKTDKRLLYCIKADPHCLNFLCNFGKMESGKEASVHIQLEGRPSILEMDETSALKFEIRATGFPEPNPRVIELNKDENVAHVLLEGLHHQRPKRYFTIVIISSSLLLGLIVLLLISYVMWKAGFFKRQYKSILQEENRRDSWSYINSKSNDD
T1 sequence (P05556 21-798): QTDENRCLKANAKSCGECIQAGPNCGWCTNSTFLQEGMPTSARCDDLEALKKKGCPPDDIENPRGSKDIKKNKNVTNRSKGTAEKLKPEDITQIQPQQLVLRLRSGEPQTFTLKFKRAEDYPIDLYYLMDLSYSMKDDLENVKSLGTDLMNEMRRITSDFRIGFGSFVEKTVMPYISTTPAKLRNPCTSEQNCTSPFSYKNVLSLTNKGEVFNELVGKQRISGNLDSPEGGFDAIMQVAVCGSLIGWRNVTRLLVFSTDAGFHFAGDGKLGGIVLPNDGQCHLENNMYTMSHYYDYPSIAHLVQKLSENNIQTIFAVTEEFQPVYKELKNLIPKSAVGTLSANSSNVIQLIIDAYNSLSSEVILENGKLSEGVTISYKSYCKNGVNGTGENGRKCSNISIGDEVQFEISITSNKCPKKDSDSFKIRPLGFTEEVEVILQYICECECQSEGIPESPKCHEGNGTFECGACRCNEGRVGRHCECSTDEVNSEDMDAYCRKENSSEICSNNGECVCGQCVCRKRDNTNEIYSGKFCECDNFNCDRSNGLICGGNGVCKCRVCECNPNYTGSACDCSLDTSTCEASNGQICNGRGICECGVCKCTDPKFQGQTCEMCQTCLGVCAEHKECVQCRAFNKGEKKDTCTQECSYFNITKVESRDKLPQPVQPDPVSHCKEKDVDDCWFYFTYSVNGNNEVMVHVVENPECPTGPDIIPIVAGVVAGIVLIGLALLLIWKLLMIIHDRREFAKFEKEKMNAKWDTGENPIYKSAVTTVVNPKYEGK

Turning to `CCCCCCN(Cc1ccc2ccccc2c1)c1c(N[C@@H](Cc2ccccc2)C(=O)O)c(=O)c1=O` [Example 17, (S)-2-[2-(Hexyl-naphthalen-2-ylmethyl-amino)-3,4-dioxo-cyclobut-1-enylamino]-3-phenyl-propionic acid], the IC50 under setting [1] is 36 µM.

`CCCCCCN(CCCCCC)c1c(N[C@@H](Cc2ccc(NC(=O)C3CCN(C(=O)OCc4ccccc4)CC3)cc2)C(=O)O)c(=O)c1=O` [Example 53]: the half-inhibitory concentration (IC50) under setting [2] was determined as 0.071 µM. Turning to `CC(=O)N1CCN(c2c(N[C@@H](Cc3ccccc3)C(=O)O)c(=O)c2=O)CC1` [Example 23, (S)-2-[2-(4-Acetyl-piperazin-1-yl)-3,4-dioxo-cyclobut-1-enylamino]-3-phenyl-propionic acid], the half-inhibitory concentration (IC50) under setting [1] came to 40 µM. On to `CCCCCCN(Cc1ccccc1)c1c(N[C@@H](Cc2ccccc2)C(=O)O)c(=O)c1=O` [Example 11, [2-(Benzyl-hexyl-amino)-3,4-dioxo-cyclobut-1-enyl]-L-phenylalanine], for which, under setting [1], the half-maximal inhibitory concentration (IC50) was found to be 4.4 µM. In the case of `CN(CCc1ccncc1)c1c(N[C@@H](Cc2ccccc2)C(=O)O)c(=O)c1=O` [Example 50, N-{2-[Methyl-(2-pyridin-4-yl-ethyl)-amino]-3,4-dioxo-cyclobut-1-enyl}-L-phenylalanine], the IC50 under setting [1] is 9 µM. With `CN1CCN(C(=O)Oc2ccc(C[C@H](Nc3c(N(C)CCc4ccncc4)c(=O)c3=O)C(=O)O)cc2)CC1` [Example 68, (2S)-3-[4-(4-methylpiperazinyl)carbamoyloxy-phenyl)-2-{2-[methyl-(2-pyridin-4-yl-ethyl)-amino]-3,4-dioxo-cyclobut-1-enylamino}-propionic acid], the concentration for half-maximal inhibition (IC50) worked out at 0.0013 µM. For `CCCCCCN(CCCCCC)c1c(N[C@@H](Cc2ccc(OC(=O)N(C)C)cc2)C(=O)O)c(=O)c1=O` [Example 59, (2S)-2-(2-Dihexylamino-3,4-dioxo-cyclobut-1-enylamino)-3-(4-dimethylcarbamoyloxy-phenyl)-propionic acid], the IC50 under setting [2] turned out to be 0.0006 µM.

The compound `CN1CCN(C(=O)Oc2ccc(C[C@H](Nc3c(N(C)CCc4ccccc4)c(=O)c3=O)C(=O)O)cc2)CC1` [Example 66, (2S)-3-[4-(4-methylpiperazinyl)carbamoyloxy-phenyl]-2-[2-(methyl-phenethyl-amino)-3,4-dioxo-cyclobut-1-enylamino]-propionic acid] came in with a half-maximal inhibitory concentration (IC50) of 0.0005 µM. Consider `CN(CCc1ccncc1)c1c(N[C@@H](Cc2ccc(NC(=O)c3ccncc3)cc2)C(=O)O)c(=O)c1=O` [Example 35, N-[2-[Methyl[2-(4-pyridinyl)ethyl]amino]-3,4-dioxo-1-cyclobuten-1yl]-4-[(4-pyridinylcarbonyl)amino]-L-phenylalanine], for which, under setting [2], the 50% inhibitory concentration (IC50) is 0.015 µM.

In the case of `CN(C)C(=O)Oc1ccc(C[C@H](Nc2c(N(C)Cc3cccnc3)c(=O)c2=O)C(=O)O)cc1` [Example 61, (2S)-3-(4-Dimethylcarbamoyloxy-phenyl)-2-[2-(methyl-pyridin-3-ylmethyl-amino)-3,4-dioxo-cyclobut-1-enylamino]-propionic acid], under setting [2], the IC50 is 0.0083 µM. Take `CN(C)C(=O)Oc1ccc(C[C@H](Nc2c(N(C)CCc3ccccc3)c(=O)c2=O)C(=O)O)cc1` [Example 57]: the IC50 under setting [2] was 0.0009 µM. Turning to `O=C(O)[C@H](Cc1ccccc1)Nc1c(NC(c2ccccc2)c2ccccc2)c(=O)c1=O` [Example 5, [2-(benzhydrylamino)-3,4-dioxo-cyclobut-1-enyl]-L-phenylalanine], the IC50 under setting [1] is 101 µM. `CN(CCc1ccccc1)c1c(N[C@@H](Cc2ccc(NC(=O)c3ccncc3)cc2)C(=O)O)c(=O)c1=O` [Example 37, N-[2-[Methyl(2-phenylethyl)amino]-3,4-dioxo-1-cyclobuten-1-yl]-4-[(4-pyridinylcarbonyl)amino]-L-phenylalanine]: the IC50 under setting [2] is 0.0022 µM. On to `CCCCCCN(CCCCCC)c1c(N[C@@H](Cc2ccc(NC(=O)c3ccncc3)cc2)C(=O)O)c(=O)c1=O` [Example 39, N-[2-(Dihexylamino)-3,4-dioxo-1-cyclobuten-1-yl]-4-[(4-pyridinylcarbonyl)amino]-L-phenylalanine], for which the IC50 under setting [2] is 0.0013 µM.
